Measurements as given in patent US4994376A, “Detection of bacteroides gingivalis” (priority 1987, dated 1991).
Read-outs that look alike come from different tables or passages of the source. Peptide text beside a SMILES is read from it. * marks the point of attachment. βNA = c1ccc2cc(N*)ccc2c1

Tests used:
Assay type in all cases: biochemical
[1] = tested on: B. asaccharolyticus; conditions: β-naphthylamine liberated after 60 minutes, 37° C.
Summary of the method: (§1)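 Hydrolysis of N-CBz-glycyl-glycyl-L-arginine-β-naphthylamide over 1 h at 37 °C, then colour developed with Fast Garnet GBC (0.5 mg/ml) in 1M acetate pH 4.2 with 10% Tween 20 for 15 min at room temperature. Absorbance read at 525 nm against an enzyme-free control; activity given as nmol β-naphthylamine released in 60 min.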

[2] = tested on: B. levii; conditions: β-naphthylamine liberated after 60 minutes, 37° C.
Summary of the method: as §1

[3] = tested on: B. loescheii; conditions: β-naphthylamine liberated after 60 minutes, 37° C.
Summary of the method: as §1

[4] = tested on: B. mel. ss. intermedius; conditions: β-naphthylamine liberated after 60 minutes, 37° C.
Summary of the method: as §1

[5] = tested on: Bacteroides gingivalis; conditions: β-naphthylamine liberated after 60 minutes, 37° C.
Summary of the method: as §1

[6] = tested on: C. ochracea; conditions: strain ATCC 27872; β-naphthylamine liberated after 60 minutes, 37° C.
Summary of the method: as §1

[7] = tested on: Capnocytophaga gingivalis; conditions: strain ATCC 33624; β-naphthylamine liberated after 60 minutes, 37° C.
Summary of the method: as §1

[8] = tested on: Capnocytophaga sp.; conditions: strain JD3-5; β-naphthylamine liberated after 60 minutes, 37° C.
Summary of the method: as §1

[9] = tested on: B. corporis; assay: Aminopeptidase activity on β-naphthylamide substrates; conditions: strain ATCC 33547; β-naphthylamine liberated after 60 minutes, 37° C.
Summary of the method: as §1

[10] = tested on: B. denticola; assay: as above; conditions: strain ATCC 33185; β-naphthylamine liberated after 60 minutes, 37° C.
Summary of the method: as §1

[11] = tested on: B. intermedius; assay: as above; conditions: strain ATCC 25611; β-naphthylamine liberated after 60 minutes, 37° C.
Summary of the method: as §1

[12] = tested on: B. melaninogenicus; assay: as above; conditions: strain ATCC 25845; β-naphthylamine liberated after 60 minutes, 37° C.
Summary of the method: as §1

[13] = tested on: C. sputigena; assay: as above; conditions: strain ATCC 33123; β-naphthylamine liberated after 60 minutes, 37° C.
Summary of the method: as §1

[14] = tested on: Actinobacillus actinomycetemcomitans; conditions: β-naphthylamine liberated after 60 minutes, 37° C.
Summary of the method: (§2)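 Enzyme plus N-CBz-glycyl-glycyl-L-arginine-β-naphthylamide incubated 1 h at 37° C. Fast Garnet GBC (0.5 mg/ml) in 1M acetate pH 4.2 with 10% Tween 20 added; stood 15 min at RT. A525 read; activity given as nmol β-naphthylamine liberated in 60 min.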

[15] = tested on: Actinomyces israeli; conditions: β-naphthylamine liberated after 60 minutes, 37° C.
Summary of the method: as §2

[16] = tested on: Eikenella corrodens; conditions: strain BP1-6; β-naphthylamine liberated after 60 minutes, 37° C.
Summary of the method: as §2

[17] = tested on: Fusobacterium nucleatum; conditions: β-naphthylamine liberated after 60 minutes, 37° C.
Summary of the method: as §2

[18] = tested on: S. mutans; conditions: strain ATCC 25175; β-naphthylamine liberated after 60 minutes, 37° C.
Summary of the method: as §2

[19] = tested on: Streptococcus mitis; conditions: β-naphthylamine liberated after 60 minutes, 37° C.
Summary of the method: as §2

[20] = tested on: V. parvula; conditions: strain ATCC 10790; β-naphthylamine liberated after 60 minutes, 37° C.
Summary of the method: as §2

[21] = tested on: Veillonella sp.; conditions: strain SE1M2; β-naphthylamine liberated after 60 minutes, 37° C.
Summary of the method: as §2

[22] = tested on: A. equuli; assay: Aminopeptidase activity on β-naphthylamide substrates; conditions: strain ATCC 19392; β-naphthylamine liberated after 60 minutes, 37° C.
Summary of the method: as §2

[23] = tested on: A. suis; assay: as above; conditions: strain ATCC 15557; β-naphthylamine liberated after 60 minutes, 37° C.
Summary of the method: as §2

[24] = tested on: F. periodonticum; assay: as above; conditions: strain EK1-15; β-naphthylamine liberated after 60 minutes, 37° C.
Summary of the method: as §2

[25] = tested on: Haemophilus aphrophilus; assay: as above; conditions: β-naphthylamine liberated after 60 minutes, 37° C.
Summary of the method: as §2

[26] = tested on: L. fermentum; assay: as above; conditions: strain ATCC 11581; β-naphthylamine liberated after 60 minutes, 37° C.
Summary of the method: as §2

[27] = tested on: Lactobacillus casei; assay: as above; conditions: β-naphthylamine liberated after 60 minutes, 37° C.
Summary of the method: as §2

[28] = tested on: S. salivarius; assay: as above; conditions: β-naphthylamine liberated after 60 minutes, 37° C.
Summary of the method: as §2

Measured: Aminopeptidase activity

CC(C)C[C@H](NC(=O)[C@@H]1CCCN1C(=O)CN)C(=O)Nc1ccc2ccccc2c1 [Gly-Pro-Leu] (H-Gly-Pro-Leu-βNA)
2 nmol: [4]; strain ATCC 33563 | [5]; strain 11-1-2 | [9] | [12] | [17]; strain ATCC 25586 | [17]; strain D31A-24 | [28]; strain ATCC 9759
3 nmol: [1]; strain 536B | [1]; strain ATCC 25260
41 nmol: [6]
1 nmol: [2]; strain 18-1-5 | [3]; strain ATCC 15930 | [3]; strain VPI4196 | [4]; strain ATCC 25261 | [4]; strain NCTC 9336 | [10] | [14]; strain 67 | [14]; strain 75 | [24]
27 nmol: [19]; strain ATCC 9815
11 nmol: [19]; strain ATCC 15912
28 nmol: [13]
4 nmol: [1]; strain ATCC 27067
7 nmol: [19]; strain ATCC 15909
0 nmol: [1]; strain ATCC 18569 | [1]; strain NY446 | [2]; strain 18-1-8 | [5]; strain 9-14K-1 | [5]; strain 381 | [5]; strain 1021 | [5]; strain ATCC 33277 | [5]; strain FAYE 19m-1 | [8] | [11] | [14]; strain ATCC 29523 | [14]; strain NCTC 9709 | [14]; strain Y4 | [15]; strain ATCC 12103 | [15]; strain DK2-3 | [16] | [17]; strain 2 | [18] | [20] | [21] | [22] | [23] | [25]; strain ATCC 13252 | [25]; strain ATCC 19415 | [25]; strain NCTC 5908 | [26] | [27]; strain ATCC 7469 | [27]; strain ATCC 11578 | [27]; strain ATCC 11582 | [28]; strain ATCC 25975
58 nmol: [7]

CC(C)C[C@H](N)C(=O)NCC(=O)O [Leu-Gly, Leucyl-glycine] (H-Leu-Gly-OH)
49 nmol: [1]; strain 536B
8 nmol: [7]
58 nmol: [3]; strain VPI4196
6 nmol: [5]; strain 9-14K-1 | [5]; strain FAYE 19m-1
53 nmol: [12]
9 nmol: [4]; strain ATCC 25261 | [6]
1 nmol: [27]; strain ATCC 11582
11 nmol: [4]; strain NCTC 9336
51 nmol: [1]; strain ATCC 27067 | [2]; strain 18-1-8
47 nmol: [2]; strain 18-1-5 | [5]; strain 11-1-2
10 nmol: [11]
16 nmol: [5]; strain 1021
25 nmol: [1]; strain ATCC 18569
76 nmol: [5]; strain 381
48 nmol: [5]; strain ATCC 33277
20 nmol: [3]; strain ATCC 15930 | [13]
2 nmol: [4]; strain ATCC 33563 | [14]; strain 67 | [17]; strain 2 | [26] | [27]; strain ATCC 11578
0 nmol: [1]; strain NY446 | [8] | [14]; strain 75 | [14]; strain ATCC 29523 | [14]; strain NCTC 9709 | [14]; strain Y4 | [15]; strain ATCC 12103 | [15]; strain DK2-3 | [16] | [17]; strain ATCC 25586 | [17]; strain D31A-24 | [18] | [19]; strain ATCC 9815 | [19]; strain ATCC 15909 | [19]; strain ATCC 15912 | [20] | [21] | [22] | [23] | [24] | [25]; strain ATCC 13252 | [25]; strain ATCC 19415 | [25]; strain NCTC 5908 | [27]; strain ATCC 7469 | [28]; strain ATCC 9759 | [28]; strain ATCC 25975
42 nmol: [10]
124 nmol: [19]; strain ATCC 15911
37 nmol: [1]; strain ATCC 25260
67 nmol: [9]
